Laboratory results: patent US9035056B2, “Pyrido[4,3-b]indole and pyrido[3,4-b]indole derivatives and methods of use” (Medivation Technologies, Inc., priority 2011, dated 2015)

Legend:
[1] = target: T1, human recombinant adrenergic α2A receptor (Homo sapiens, UniProt P08913); assay: Adrenergic α2A radioligand binding ([3H]MK-912); details: 0.1 μM compound; for inhibition at 0.1 µM: read-out: Percentage inhibition of ligand binding, Adrenergic α2A; for Percentage inhibition of ligand binding, Adrenergic α2A: 0.1 µM
T1 construct: expressed in transfected cells; host or cells: insect Sf9 cells
T1 sequence (P08913 1-465): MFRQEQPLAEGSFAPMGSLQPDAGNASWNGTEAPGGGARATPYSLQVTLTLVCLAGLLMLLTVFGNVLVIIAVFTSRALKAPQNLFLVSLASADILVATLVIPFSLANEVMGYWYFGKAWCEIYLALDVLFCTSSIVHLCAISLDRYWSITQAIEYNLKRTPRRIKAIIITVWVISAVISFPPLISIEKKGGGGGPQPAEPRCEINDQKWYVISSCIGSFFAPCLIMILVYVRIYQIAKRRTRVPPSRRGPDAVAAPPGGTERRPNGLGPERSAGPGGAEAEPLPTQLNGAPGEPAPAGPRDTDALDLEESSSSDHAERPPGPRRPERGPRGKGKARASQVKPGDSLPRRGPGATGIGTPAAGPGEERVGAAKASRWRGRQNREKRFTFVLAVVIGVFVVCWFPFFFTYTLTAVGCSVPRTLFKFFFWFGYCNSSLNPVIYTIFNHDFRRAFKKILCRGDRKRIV
Method: To evaluate in radioligand binding assays the activity of compounds of the invention, human recombinant adrenergic α2A receptor expressed in insect Sf9 cells (Uhlen, S. et al, J. Pharmacol. Exp. Ther. 271:1558, 1994) in a modified Tris-HCl buffer (50 mM Tris-HCl, pH 7.4, 12.5 mM MgCl2, 2 mM EDTA) was used. Compounds of invention were incubated with 1 nM [^3H]MK-912 for 60 min at 25° C. MK-912 is (2S-trans)-1,3,4,5′,6,6′,7,12b-octahydro-1′,3′-dimethyl-spiro[2H-benzofuro[2,3-a]quinolizine-2,4′(1′H)-pyrimidin]-2′(3′H)-one hydrochloride Non-specific binding was estimated in the presence of 10 μM WB-4101 (2-(2,6-Dimethoxyphenoxyethyl)aminomethyl-1,4-benzodioxane hydrochloride). Receptor proteins were filtered and washed, the filters were then counted to determine [^3H]MK-912 specifically bound. Compounds were screened at 1 μM or lower, using 1% DMSO as vehicle. Biochemical assay results are presented as the percent inhibition of specific binding in Table 3.

[2] = target: T2, human recombinant adrenergic α2B receptor (Homo sapiens, UniProt P18089); assay: Adrenergic α2B radioligand binding ([3H]Rauwolscine); details: for Percentage inhibition of ligand binding, Adrenergic α2B: 0.03 µM; for inhibition at 0.1 µM: 0.1 μM compound
T2 construct: expressed in transfected cells; host or cells: CHO-K1
T2 sequence (P18089 1-450): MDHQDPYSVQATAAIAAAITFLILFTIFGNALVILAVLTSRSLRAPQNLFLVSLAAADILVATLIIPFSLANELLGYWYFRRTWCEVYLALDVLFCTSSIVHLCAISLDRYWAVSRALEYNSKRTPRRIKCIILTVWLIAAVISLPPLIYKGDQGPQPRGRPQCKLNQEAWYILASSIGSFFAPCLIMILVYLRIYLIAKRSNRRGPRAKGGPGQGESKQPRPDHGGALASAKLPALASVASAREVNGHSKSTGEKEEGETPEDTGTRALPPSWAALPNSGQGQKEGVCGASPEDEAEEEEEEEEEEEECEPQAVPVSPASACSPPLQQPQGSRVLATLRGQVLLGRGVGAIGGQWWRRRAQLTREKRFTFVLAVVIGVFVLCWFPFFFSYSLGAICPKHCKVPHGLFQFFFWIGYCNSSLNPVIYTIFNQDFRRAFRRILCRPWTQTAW
Method: To evaluate in radioligand binding assays the activity of compounds of the invention, human recombinant adrenergic α2B receptor expressed in Chinese hamster ovary (CHO) K1 cells (Uhlen, S. et al, Eur. J. Pharmacol. 343(1):93, 1998) in a modified Tris-HCl buffer (50 mM Tris-HCl, pH 7.4, 12.5 mM MgCl2, 1 mM EDTA, 0.2% BSA) was used. Compounds of the invention were incubated with 2.5 nM [^3H]Rauwolscine for 60 min at 25° C. Non-specific binding was estimated in the presence of 10 μM Prazosin. Receptor proteins were filtered and washed, the filters were then counted to determine [^3H]Rauwolscine specifically bound. Compounds were screened at 1 μM or lower, using 1% DMSO as vehicle. Biochemical assay results are presented as the percent inhibition of specific binding in Table 3.

[3] = target: T3, human recombinant adrenergic α1D receptor (Homo sapiens, UniProt P25100); assay: Adrenergic α1D radioligand binding ([3H]Prazosin); details: 0.1 μM compound; read-out: Percentage inhibition of ligand binding, Adrenergic α1D
T3 construct: expressed in transfected cells; host or cells: HEK-293
T3 sequence (P25100 1-572): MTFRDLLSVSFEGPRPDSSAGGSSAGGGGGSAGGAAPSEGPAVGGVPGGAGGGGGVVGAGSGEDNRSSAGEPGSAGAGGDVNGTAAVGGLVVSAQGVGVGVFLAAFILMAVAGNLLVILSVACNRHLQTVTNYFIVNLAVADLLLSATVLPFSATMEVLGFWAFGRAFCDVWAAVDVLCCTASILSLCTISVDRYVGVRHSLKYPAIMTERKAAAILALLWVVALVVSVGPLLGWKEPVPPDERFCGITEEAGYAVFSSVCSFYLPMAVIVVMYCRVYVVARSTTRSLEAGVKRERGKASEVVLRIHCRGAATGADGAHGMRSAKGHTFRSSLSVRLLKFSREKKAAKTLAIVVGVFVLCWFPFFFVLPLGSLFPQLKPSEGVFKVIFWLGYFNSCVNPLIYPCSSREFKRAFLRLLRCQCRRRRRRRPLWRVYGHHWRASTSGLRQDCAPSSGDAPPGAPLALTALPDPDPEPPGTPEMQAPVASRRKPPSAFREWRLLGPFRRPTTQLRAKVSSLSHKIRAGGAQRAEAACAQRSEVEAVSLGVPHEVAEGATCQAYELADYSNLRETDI
Method: To evaluate in radioligand binding assays the activity of compounds of the invention, human recombinant adrenergic α1D receptor expressed in human embryonic kidney (HEK-293) cells (Kenny, B. et al, Br. J. Pharmacol. 115(6):981, 1995) in a 50 mM Tris-HCl buffer, pH 7.4, was used. Compounds of invention were incubated with 0.6 nM [^3H]Prazosin for 60 min at 25° C. Non-specific binding was estimated in the presence of 10 μM phentolamine. Receptor proteins were filtered and washed, the filters were then counted to determine [^3H]Prazosin specifically bound. Compounds were screened at 1 μM or lower, using 1% DMSO as vehicle. Biochemical assay results are presented as the percent inhibition of specific binding in Table 3.

[4] = read-out: Percentage inhibition of ligand binding, Adrenergic α2B

Percentage inhibition of ligand binding, Adrenergic α2B ([2]; 0.03 μM compound) [%] | Percentage inhibition of ligand binding, Adrenergic α2A [1] [%] | inhibition at 0.03 µM ([2]; 0.03 μM compound, read-out: Percentage inhibition of ligand binding, Adrenergic α2B) [%] | Structure (SMILES) | inhibition at 0.1 µM [1] [%] | inhibition at 0.1 µM [3] [%] | inhibition at 0.1 µM [2, 4] [%]
40 | 4 |  | Cc1ccc2c(c1)c1c(n2CC2(O)CCCc3ncccc32)CCN(C)C1 (single isomer, unassigned) [ii-112b] |  |  | 
23 |  |  | Cc1ccc2c(c1)c1c(n2CC2(O)CCCc3ccncc32)CCN(C)C1 (single isomer, unassigned) [ii-113a] | 9 |  | 

Continued, compound first:

Structure (SMILES) | Percentage inhibition of ligand binding, Adrenergic α2B ([2]; 0.03 μM compound) [%] | Percentage inhibition of ligand binding, Adrenergic α2A [1] [%] | inhibition at 0.03 µM ([2]; 0.03 μM compound, read-out: Percentage inhibition of ligand binding, Adrenergic α2B) [%] | inhibition at 0.1 µM [1] [%] | inhibition at 0.1 µM [3] [%] | inhibition at 0.1 µM [2, 4] [%]
Cc1ccc2c(c1)c1c(n2CC2(O)CCCc3cnccc32)CCN(C)C1 (single isomer, unassigned) [ii-74a] | 22 |  |  | 14 |  | 
Cc1ccc2c(c1)c1c(n2CC2(O)CCCc3cnccc32)CCN(C)C1 (single isomer, unassigned) [ii-74b] | 69 | 12 |  |  |  | 
Cc1ccc2c(c1)c1c(n2CC2(O)CCCc3ncccc32)CCN(C)C1 (single isomer, unassigned) [ii-112a] |  | 15 | 58 |  |  | 
Cc1ccc2c(c1)c1c(n2/C=C2/CCCc3ccccc32)CCN(C)C1 [i-2] |  |  |  | 98 | 86 | 81
Cc1ccc2c(c1)c1c(n2/C=C2\CCCc3ccccc32)CCN(C)C1 [i-3] |  |  |  | 92 | 43 | 57
